PMC3914206

Assays:
Format in all cases: binding
Conditions in all cases: Compound Concentration 10 µM
panel of 442 kinases [1] = target: T1, panel of 442 kinases (Homo sapiens, UniProt P48730)
T1 construct: purchased KINOMEscan
From the text: (§1) We assessed the selectivity of members of this scaffold using the KINOMEscan methodology across a near comprehensive panel of 442 kinases [[18,27]].

panel of 442 kinases [2] = target: T2, panel of 442 kinases (Homo sapiens, UniProt Q9UEE5)
T2 construct: purchased KINOMEscan
T2 sequence (Q9UEE5 1-414): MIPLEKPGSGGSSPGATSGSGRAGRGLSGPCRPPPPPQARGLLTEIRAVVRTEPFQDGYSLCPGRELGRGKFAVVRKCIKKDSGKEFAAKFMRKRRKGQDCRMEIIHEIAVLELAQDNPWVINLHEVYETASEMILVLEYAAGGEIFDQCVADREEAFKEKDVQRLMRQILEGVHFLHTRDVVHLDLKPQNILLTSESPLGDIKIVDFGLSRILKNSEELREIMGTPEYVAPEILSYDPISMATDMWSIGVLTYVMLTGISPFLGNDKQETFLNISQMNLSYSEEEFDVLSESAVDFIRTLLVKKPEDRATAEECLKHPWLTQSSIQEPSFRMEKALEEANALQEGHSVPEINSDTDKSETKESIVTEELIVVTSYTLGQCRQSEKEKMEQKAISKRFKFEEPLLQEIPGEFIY
From the text: as §1

panel of 442 kinases [3] = target: T3, panel of 442 kinases (Homo sapiens, UniProt Q9Y5S2)
T3 construct: purchased KINOMEscan
From the text: as §1

T1 sequence (P48730 whole entry): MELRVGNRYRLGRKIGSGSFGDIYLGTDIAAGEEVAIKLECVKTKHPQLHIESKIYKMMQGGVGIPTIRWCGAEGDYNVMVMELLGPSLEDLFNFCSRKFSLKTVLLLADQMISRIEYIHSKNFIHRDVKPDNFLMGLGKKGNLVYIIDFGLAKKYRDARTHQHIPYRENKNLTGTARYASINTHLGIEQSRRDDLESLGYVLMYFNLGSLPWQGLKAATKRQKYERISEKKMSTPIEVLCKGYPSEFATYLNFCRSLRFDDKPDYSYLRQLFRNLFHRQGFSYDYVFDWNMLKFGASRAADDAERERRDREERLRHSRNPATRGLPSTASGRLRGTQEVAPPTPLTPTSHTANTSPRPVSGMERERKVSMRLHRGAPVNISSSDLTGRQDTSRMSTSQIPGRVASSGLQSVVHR
T3 sequence (Q9Y5S2 whole entry): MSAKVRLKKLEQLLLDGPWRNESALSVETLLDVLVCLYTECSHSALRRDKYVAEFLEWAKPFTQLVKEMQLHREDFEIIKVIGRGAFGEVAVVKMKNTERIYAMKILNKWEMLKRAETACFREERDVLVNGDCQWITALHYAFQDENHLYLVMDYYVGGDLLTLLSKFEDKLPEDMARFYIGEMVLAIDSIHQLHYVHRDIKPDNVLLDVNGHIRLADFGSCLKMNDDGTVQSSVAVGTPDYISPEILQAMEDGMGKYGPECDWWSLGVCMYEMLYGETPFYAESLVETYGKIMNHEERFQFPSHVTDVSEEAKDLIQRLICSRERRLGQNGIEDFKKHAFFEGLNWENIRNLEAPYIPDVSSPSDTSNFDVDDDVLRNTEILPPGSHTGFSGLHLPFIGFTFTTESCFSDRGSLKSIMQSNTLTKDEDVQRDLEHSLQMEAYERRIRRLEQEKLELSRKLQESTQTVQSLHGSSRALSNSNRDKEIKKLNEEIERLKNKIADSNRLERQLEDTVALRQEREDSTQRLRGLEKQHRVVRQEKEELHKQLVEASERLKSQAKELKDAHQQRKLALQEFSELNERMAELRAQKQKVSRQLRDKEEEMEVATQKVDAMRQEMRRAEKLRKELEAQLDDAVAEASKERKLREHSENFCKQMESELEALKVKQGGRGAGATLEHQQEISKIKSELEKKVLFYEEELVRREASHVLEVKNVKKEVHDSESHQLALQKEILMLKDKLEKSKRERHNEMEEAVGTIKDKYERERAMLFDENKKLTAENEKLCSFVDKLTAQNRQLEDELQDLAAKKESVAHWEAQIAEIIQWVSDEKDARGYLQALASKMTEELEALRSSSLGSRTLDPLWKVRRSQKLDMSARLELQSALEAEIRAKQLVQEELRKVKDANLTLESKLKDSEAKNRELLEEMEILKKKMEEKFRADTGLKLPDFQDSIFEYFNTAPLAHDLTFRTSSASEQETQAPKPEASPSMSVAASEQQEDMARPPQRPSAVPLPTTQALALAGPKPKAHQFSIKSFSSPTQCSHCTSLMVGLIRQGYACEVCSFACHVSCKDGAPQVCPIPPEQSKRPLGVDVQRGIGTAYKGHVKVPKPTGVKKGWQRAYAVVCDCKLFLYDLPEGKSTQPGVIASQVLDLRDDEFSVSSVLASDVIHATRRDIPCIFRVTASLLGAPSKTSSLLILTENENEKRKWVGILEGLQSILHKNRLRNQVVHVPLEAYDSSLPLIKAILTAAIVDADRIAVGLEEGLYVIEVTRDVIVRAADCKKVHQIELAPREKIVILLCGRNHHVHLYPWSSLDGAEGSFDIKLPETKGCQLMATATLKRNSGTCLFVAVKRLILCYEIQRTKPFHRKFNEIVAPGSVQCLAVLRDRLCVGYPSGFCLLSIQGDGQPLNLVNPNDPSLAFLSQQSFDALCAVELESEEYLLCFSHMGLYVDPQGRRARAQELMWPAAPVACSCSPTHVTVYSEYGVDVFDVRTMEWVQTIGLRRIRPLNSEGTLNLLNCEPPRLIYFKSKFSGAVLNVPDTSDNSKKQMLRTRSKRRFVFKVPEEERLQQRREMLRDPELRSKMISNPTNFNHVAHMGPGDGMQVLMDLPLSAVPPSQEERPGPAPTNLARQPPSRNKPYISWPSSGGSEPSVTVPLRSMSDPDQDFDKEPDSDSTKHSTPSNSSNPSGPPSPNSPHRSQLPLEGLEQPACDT

SMILES | KINOMEscan: CSNK1D (panel of 442 kinases [1]) | KINOMEscan: DRAK1 (panel of 442 kinases [2]) | KINOMEscan: MRCKB (panel of 442 kinases [3])
COc1cc(C(=O)N2CCC(N3CCN(C)CC3)CC2)ccc1Nc1ncc2c(n1)N(C)c1ccccc1C(=O)N2C [15 (LRRK2-IN-1)] | 81 | 100 | 100
COc1cc(C(=O)N2CCC(N3CCN(C)CC3)CC2)ccc1Nc1ncc2c(n1)N1CCc3cccc(c31)C(=O)N2C [Compound 24] | 60 |  | 
COc1cc(C(=O)N2CCC(N3CCN(C)CC3)CC2)ccc1Nc1ncc2c(n1)N(C1CCCC1)c1ccccc1C(=O)N2C [Compound 25, 11-cyclopentyl-2-((2-methoxy-4-(4-(4-methylpiperazin-1-yl)piperidine-1-carbonyl)phenyl)amino)-5-methyl-5H-benzo[e]pyrimido[5,4-b][1,4]diazepin-6(11H)-one] | 98 | 100 | 100
CCOc1cc(C(=O)N2CCC(N3CCN(C)CC3)CC2)ccc1Nc1ncc2c(n1)N(C1CCCC1)c1ccccc1C(=O)N2C [Compound 26] | 100 | 100 | 100
